{
  "source": "paper PMC11864979",
  "about": "“First-in-class ultralong-target-residence-time p38α inhibitors as a mitosis-targeted therapy for colorectal cancer” (Nature Cancer, 2025)",
  "key": {"PDO12": {"system": "PDO12", "experiment": "cell viability in patient-derived CRC organoids PDO12", "assay_type": "cell-based, human", "settings": "PDO12, 0.5 µM, 4 d", "protocol": "(§1) For in vitro treatment studies, organoids were mechanically dissociated and digested using TrypLE supplemented with 100 µg ml^−1 DNaseI and 10.5 µM Y-27632 dihydrochloride (Invitrogen) at 37 °C. A total of 1,000–2,000 single cells were plated per well in white 96-well plates (Greiner) in culture medium containing 10% GFR Matrigel or Cultrex BME. The treatment with doxycycline (5 µg ml^−1), pharmacological inhibitors or corresponding volumes of DMSO was started 24 h after plating. Doxycycline was obtained from Sigma-Aldrich. […] Cell viability was measured by means of CellTiter-Glo 3D or CellTiter-Glo 2.0 reagent (Promega) according to the manufacturers’ instructions and the Infinite M Plex reader (Tecan, i-control version 3.9.1 software). Results were normalized to vehicle (DMSO) or to shNC. For cell-doubling assays, the cell number was quantified at the corresponding time points using Guava EasyCyte flow cytometer (Luminex, CytoSoft v5.2 software)."}, "KAP liver metastasis": {"system": "KAP liver metastasis", "experiment": "survival of wild-type mice with KAP liver metastasis", "assay_type": "in vivo, mouse", "quoted_text": "Subcutaneous injection, splenic seeding or cecum injection of organoids was performed in 8–10-week-old C57BL/6 N/Crl, Rag2^−/− (B6.Cg-Rag2^tm1.1Cgn/J), or CB17 Scid beige (CB17.Cg-Prkdc^scidLyst^bg-J/Crl) mice, obtained from Charles River. The organoids were dissociated into single cells, washed with PBS and injected in a 1:1 mixture of PBS and Matrigel. For murine organoids, 1 × 10^5 cells were injected into the left and right flanks or the spleen capsule and 2 × 10^6 cells were injected into the cecum wall. For human organoids, 4 × 10^5 cells were injected into the flanks of CB17 Scid beige mice. For splenic seeding and cecum injection, mice were anaesthetized using ketamine (100 mg kg^−1, intraperitoneally) and xylazin (10 mg/kg, intraperitoneally) in NaCl and a small laparotomy below the thorax was performed.\nNo mice were excluded during treatment studies."}, "PDO14": {"system": "PDO14", "experiment": "cell viability in patient-derived CRC organoids PDO14", "assay_type": "cell-based, human", "protocol": "as §1"}, "KAP^2D cells": {"system": "KAP^2D cells", "experiment": "annexin V apoptosis analysis in KAP^2D cells", "assay_type": "cell-based, mouse", "settings": "for Annexin V+ cells: Fig. 5a", "quoted_text": "Apoptosis was analyzed with the FITC annexin V apoptosis detection kit (Biolegend). Both measurements were performed with FACS Canto II (BD) and physical parameters were used to exclude cell debris and cell doublets."}, "LS 174T": {"system": "LS 174T", "experiment": "cell viability in human CRC cell line LS 174T", "assay_type": "cell-based", "quoted_text": "The cells were cultured at 37 °C and 7% CO2 with RPMI (KAP^2D cells) or DMEM (other cell lines), supplemented with 10% FBS and penicillin–streptomycin. […] No commonly misidentified cell lines were used. Mycoplasma contamination was excluded by a PCR-based analysis."}, "HT-29": {"system": "HT-29", "experiment": "cell viability in human CRC cell line HT-29", "assay_type": "cell-based", "settings": "for viability at 0.0137 µM: HT-29, 0.0137 µM", "protocol": "To generate KAP^2D cells, KAP organoids were isolated from Matrigel, fragmented by mechanical dissociation and plated without any extracellular matrix on common cell culture dishes. Phoenix-Eco packaging cells (CRL-3214), HCT-15 (CCL-225), HCT 116 (CCL-247), COLO 205 (CCL-222), LS 174T (CL-188), RKO (CRL-2577) and HT-29 (HTB-38) were obtained from the American Type Culture Collection. The cells were cultured at 37 °C and 7% CO2 with RPMI (KAP^2D cells) or DMEM (other cell lines), supplemented with 10% FBS and penicillin–streptomycin. KAP^2D cells were authenticated using PCR (Kras locus and Trp53 locus). Phoenix-Eco packaging cells and HCT-15, HCT 116, COLO 205, LS 174T, RKO and HT-29 cells were authenticated by the provider using short tandem repeat profiling. No commonly misidentified cell lines were used. Mycoplasma contamination was excluded by a PCR-based analysis.\nas §1"}},
  "note": "Values joined by “and” are separate entries in the source; they are usually repeats but may differ in a detail not shown here. Equal values may be shown once. Read-outs that look alike come from different tables or passages of the source.",
  "data": [
    {"smiles": "CNC(=O)c1ccc2c(c1)C(=O)c1ccc(Nc3ccc(F)c(NC(=O)C4CC4)c3)cc1CC2", "note": "[Compound 2015]", "values": [
      {"measurement": "viability at 0.5 µM", "setting": "PDO12; Homo sapiens, 96 h, read-out: Cell viability (%)", "result": 40, "unit": "%"},
      {"measurement": "Cell viability (%)", "setting": "PDO12; 0.5 µM", "result": "54.51% and 54.94%"},
      {"measurement": "survival / therapeutic efficacy in KAP liver metastasis (in words)", "setting": "KAP liver metastasis; 20 mg kg^−1 daily, start 5 weeks after organoid inoculation", "result": "significantly increased the overall survival"},
      {"measurement": "Survival", "setting": "KAP liver metastasis; single animals, 1 = event, 0 = censored, Fig. 6e", "result": "41 d of treatment and 44 d of treatment and 45 d of treatment and 47 d of treatment and ≥ 50 d of treatment and 34 d of treatment"},
      {"measurement": "viability at 1 µM", "setting": "PDO14; Homo sapiens, 96 h, PDO14, 1 µM, 4 days, read-out: Cell viability (%)", "result": 38, "unit": "%"},
      {"measurement": "Cell viability (%)", "setting": "PDO14; PDO14, 0.5 µM, 4 d, 0.5 µM", "result": "66.36% and 80.25% and 88.11%"},
      {"measurement": "Cell viability (%)", "setting": "PDO14; PDO14, 1 µM, 4 days, 1 µM", "result": "35.04% and 42.53%"},
      {"measurement": "Annexin V+ cells", "setting": "KAP^2D cells; 1 d of treatment", "result": "23.30% and 25.40% and 24.30% and 22.30% and 24.90% and 20.90%"},
      {"measurement": "Annexin V+ cells", "setting": "KAP^2D cells; 2 d of treatment", "result": "41.00% and 47.90% and 34.70% and 29.60% and 31.10% and 30.20%"},
      {"measurement": "Annexin V+ cells", "setting": "KAP^2D cells; 3 d of treatment", "result": "53.10% and 40.00% and 40.60% and 42.30% and 39.50% and 37.30%"},
      {"measurement": "Annexin V+ cells", "setting": "KAP^2D cells; 4 d of treatment", "result": "66.80% and 62.60% and 62.90% and 52.60% and 53.50% and 56.70%"},
      {"measurement": "annexin V positivity (in words)", "setting": "KAP^2D cells; KAP^2D, after 3–4 days of treatment", "result": "strongly increased annexin V positivity"},
      {"measurement": "LS 174T Cell viability (%)", "setting": "LS 174T; 0.0137 µM, 4 d", "result": "96.94% and 94.17% and 83.74% and 81.63% and 85.36%"},
      {"measurement": "LS 174T Cell viability (%)", "setting": "LS 174T; 0.0412 µM, 4 d", "result": "73.38% and 70.71% and 85.74% and 87.33% and 89.84%"},
      {"measurement": "LS 174T Cell viability (%)", "setting": "LS 174T; 0.1235 µM, 4 d", "result": "69.97% and 51.36% and 67.79% and 77.35% and 76.20% and 73.53%"},
      {"measurement": "LS 174T Cell viability (%)", "setting": "LS 174T; 0.3704 µM, 4 d", "result": "24.32% and 25.80% and 26.81% and 26.78% and 26.48%"},
      {"measurement": "LS 174T Cell viability (%)", "setting": "LS 174T; 1.1111 µM, 4 d", "result": "31.73% and 32.17% and 36.58% and 37.87% and 35.55%"},
      {"measurement": "LS 174T Cell viability (%)", "setting": "LS 174T; 3.3333 µM, 4 d", "result": "32.71% and 33.28% and 34.27% and 33.01% and 33.12%"},
      {"measurement": "LS 174T Cell viability (%)", "setting": "LS 174T; 10.0000 µM, 4 d", "result": "28.71% and 24.62% and 25.79% and 25.85%"},
      {"measurement": "viability at 0.0137 µM", "setting": "LS 174T; Homo sapiens, LS174T, 96 h, 0.0137 µM, 4 d, read-out: LS 174T Cell viability (%)", "result": 92.3, "unit": "%"},
      {"measurement": "viability at 0.0412 µM", "setting": "LS 174T; Homo sapiens, LS174T, 96 h, 0.0412 µM, 4 d, read-out: LS 174T Cell viability (%)", "result": 70.7, "unit": "%"},
      {"measurement": "viability at 0.3704 µM", "setting": "LS 174T; Homo sapiens, LS174T, 96 h, 0.3704 µM, 4 d, read-out: LS 174T Cell viability (%)", "result": 25, "unit": "%"},
      {"measurement": "viability at 1.1111 µM", "setting": "LS 174T; Homo sapiens, LS174T, 96 h, 1.1111 µM, 4 d, read-out: LS 174T Cell viability (%)", "result": 31.5, "unit": "%"},
      {"measurement": "viability at 3.3333 µM", "setting": "LS 174T; Homo sapiens, LS174T, 96 h, 3.3333 µM, 4 d, read-out: LS 174T Cell viability (%)", "result": 33.1, "unit": "%"},
      {"measurement": "viability at 10 µM", "setting": "LS 174T; Homo sapiens, LS174T, 96 h, 10.0000 µM, 4 d, read-out: LS 174T Cell viability (%)", "result": 25.1, "unit": "%"},
      {"measurement": "IC50", "setting": "LS 174T; Homo sapiens, LS174T, 96 h, LS 174T, 4 d of treatment", "result": 132, "unit": "nM"},
      {"measurement": "HT-29 Cell viability (%)", "setting": "HT-29; 0.0137 µM, ED Fig. 9h, Repetition, replicates", "result": "96.89% and 103.43%"},
      {"measurement": "HT-29 Cell viability (%)", "setting": "HT-29; 0.0137 µM, ED Fig. 9h, first experiment, replicates", "result": "95.39% and 93.39%"},
      {"measurement": "HT-29 Cell viability (%)", "setting": "HT-29; 0.0412 µM, ED Fig. 9h, Repetition, replicates", "result": "87.26% and 92.22%"},
      {"measurement": "HT-29 Cell viability (%)", "setting": "HT-29; 0.0412 µM, ED Fig. 9h, first experiment, replicates", "result": "90.94% and 92.11%"},
      {"measurement": "HT-29 Cell viability (%)", "setting": "HT-29; 0.1235 µM, ED Fig. 9h, Repetition, replicates", "result": "78.51% and 65.92%"},
      {"measurement": "HT-29 Cell viability (%)", "setting": "HT-29; 0.1235 µM, ED Fig. 9h, first experiment, replicates", "result": "82.62% and 81.99%"},
      {"measurement": "HT-29 Cell viability (%)", "setting": "HT-29; 0.3704 µM, ED Fig. 9h, Repetition, replicates", "result": "32.88% and 34.27%"},
      {"measurement": "HT-29 Cell viability (%)", "setting": "HT-29; 0.3704 µM, ED Fig. 9h, first experiment, replicates", "result": "11.40% and 11.69%"},
      {"measurement": "HT-29 Cell viability (%)", "setting": "HT-29; 1.1111 µM, ED Fig. 9h, Repetition, replicates", "result": "7.40% and 7.23%"},
      {"measurement": "HT-29 Cell viability (%)", "setting": "HT-29; 1.1111 µM, ED Fig. 9h, first experiment, replicates", "result": "7.18% and 7.44%"},
      {"measurement": "HT-29 Cell viability (%)", "setting": "HT-29; 3.3333 µM, ED Fig. 9h, Repetition, replicates", "result": "7.01% and 6.31%"},
      {"measurement": "HT-29 Cell viability (%)", "setting": "HT-29; 3.3333 µM, ED Fig. 9h, first experiment, replicates", "result": "10.00% and 9.86%"},
      {"measurement": "HT-29 Cell viability (%)", "setting": "HT-29; 10.0000 µM, ED Fig. 9h, Repetition, replicates", "result": "6.48% and 6.38%"},
      {"measurement": "HT-29 Cell viability (%)", "setting": "HT-29; 10.0000 µM, ED Fig. 9h, first experiment, replicates", "result": "9.39% and 10.22%"},
      {"measurement": "IC50", "setting": "HT-29; Homo sapiens, 96 h, HT-29, 4 d of treatment", "result": 178, "unit": "nM"},
      {"measurement": "viability at 0.0137 µM", "setting": "HT-29; Homo sapiens, ED Fig. 9h, Repetition, replicates, read-out: HT-29 Cell viability (%)", "result": 99.5, "unit": "%"},
      {"measurement": "viability at 0.0137 µM", "setting": "HT-29; Homo sapiens, ED Fig. 9h, first experiment, replicates, read-out: HT-29 Cell viability (%)", "result": 93.3, "unit": "%"},
      {"measurement": "viability at 0.0412 µM", "setting": "HT-29; Homo sapiens, HT-29, 0.0412 µM, ED Fig. 9h, Repetition, replicates, read-out: HT-29 Cell viability (%)", "result": 82.5, "unit": "%"}
    ]}
  ]
}
